Test results: patent US7271239B2, “D-isomers of antimicrobial peptide” (The Research Foundation of State University of New York, priority 2004, dated 2007)
Like-named read-outs stand apart in the source and are kept apart here. Where a SMILES comes first, the peptide text is derived from it. Where no end group is shown, it is not given here. [ ]: non-standard residue; d: D form.

Assays:
S. mutans GS-5 = experiment: Time-kill assay; type: cell-based, Streptococcus mutans; details: after 4 h incubation, each agent at its MIC
Description: FIG. 10. Time-Killing curves for S. mutans. […] Control (▪), MUC7 12-mer-L (Δ), MUC7 12-mer-D (□), MUC7 20-mer (▴), Hsn5 12-mer (×), magainin II (●), chlorhexidine (◯).
For the peptides MUC7 12-mer-L, MUC7 12-mer-D, and MUC7 20-mer, time-kill kinetic studies against S. mutans were performed by the broth macrodilution method. S. mutans GS-5 (1×10^6 CFU/ml) and antibacterial agens (find concentrations of 12.5 μM for each peptide, and 2 μM for CHX; their MICs) were incubated in 25% BHI at 37° C. At the time of 0, 1, 2, 4, 8, and 24 h, samples were taken and viable counts determined as follows: The samples were serially diluted (10^−1 to 10^−4) in sterile 10 mM PBS (pH 7.2) and 50 μl aliquots were plated onto TSBY agar. The plates were incubated anaerobically at 37° C. for 48 h, followed by enumerating the CFU. Killing curves were constructed by plotting the log10 CFU per milliliter versus time over 24 h. All assays were done in duplicate on at least two occasions.

Candida strains = type: cell-based
Description: (§1) Killing assays in saliva. […] Saliva without peptides was a blank control.
(§2) Activity of peptides in saliva against different candida strains. The in vitro candidacidal activities of MUC7 12-mer-L and D, Hsn5 12-mer, and Magainin-II against four Candida strains in clarified saliva are shown in Table 1. The data are presented as percent loss of cell viability compared to non-treated control. The following observations were made. […] In the presence of PIC, the activity values of MUC7 12-mer-L and of Magainin-II rose close to a 100% for all strains, but not that of Hsn5 peptide, which achieved the similar activity only against the C. albicans (ATCC strain). The activities against the other strains were much lower, in particular against both strains of C. glabrata (30-40%). […] This was true especially in saliva without PIC.

trypsin = experiment: Susceptibility of peptides to trypsin (SDS-PAGE); type: in vitro ADME
Description: FIGS. 3A and 3B. Stability of antimicrobial peptides in (3A) Trypsin and (3B) unclarified saliva. Each peptide (3 μg in 5 μl of 0.5 M Tris-HCl buffer pH 7.5) was incubated with: 0.2 μg/ml trypsin containing PIC or no PIC for 0.5 h; or saliva (10 μl) for 1 h. The control of each compound was also incubated with Tris-HCl buffer in parallel. The samples were analyzed by 13% SDS-PAGE. The gel was stained with Coomassie brilliant blue and further analyzed for the peptide degradation by GS-700 Imaging Densitometer. The degradation was estimated by the equation: 1−(density of test band/density of control band)×100%. Ctrol: each peptide alone; T: trypsin plus peptide; T+PIC: trypsin containing PIC plus peptide; S: saliva plus peptide; S+PIC: saliva containing PIC plus peptide.
Stability of peptides in saliva and susceptibility of septides to trypsin. Three microliters of each peptide (MUC7 12-mer-D, MUC7 12-mer-L, Hsn5 12-mer, or Magainin-II, at 1 μg/μl in 0.2 M Tris-HCl buffer pH 7.5) were incubated with 11 μl of 0.2 μg/ml trypsin or saliva. This gave a final concentration of 0.16 μg/ml for trypsin, and 0.2 μg/μl for peptides (or 127, 127, 128, and 81 μM, for MUC7 12-mer-D, MUC7 12-mer-L, Hsn5 12-mer, or Magainin II, respectively). The reactions, without PIC (water instead or PIC) or with 1×PIC [50% (v/v)] were incubated 0.5 h with trypsin, and 1 hr with saliva (clarified or unclarified) at 37° C. The control of each compound was also incubated with Tris-HCl buffer in parallel. The samples were analyzed by 13% SDS-PAGE. Gels was stained with Coomassie brilliant blue R-250 and further analyzed for the peptide degradation by GS-700 Imaging Densitometer (Bio Red). The degradation was estimated by the equation: 1−(density of test band/density of control band)×100%.

Erythrocytes = details: determined previously (5), cited from earlier work
[1] = test system: C. glabrata 65C (azole-resistant clinical isolate); type: cell-based; details: clarified saliva
Description: as §1, §2

C. albicans DIS = experiment: Killing assay in whole human saliva
Description: FIG. 1. Candidacidal activity of MUC7 12-mer-L, MUC7 12-mer-D, Hsn5 12-mer, and Magainin-II in whole human saliva (WHS). Each peptide at final concentration of 25, 50, and 100 μM was incubated with C. albicans (DIS isolate at 1×10^5 cells/ml) and 20 μl of clarified or unclarified saliva (SL; hatched bars), saliva containing Protease inhibitor cocktail (PIC) (SL+PIC; filled bars), or saliva containing ethylenediamine tetraacetic acid (EDTA) (SL+EDTA; clear bars) at 37° C. for 1.5 h. At the end of incubation, the samples were diluted 20-fold and aliquots plated on SDA. The colony forming units (CFU) were counted after 24 h of incubation. The loss of C. albicans viability was determined by the equation (1−CFU of the test group/CFU of the control group)×100%. The data represent three individual trials, and in each trial the sample was duplicated; the error bars represent standard deviation.
FIG. 4. […] Stimulated whole saliva was collected from 5 healthy subjects. Peptides (50 μM) were incubated with C. albicans cells (1×10^5) in the each individual saliva containing PIC (SL+PIC) at 37° C. for 1.5 hr and the loss of the cell viability was determined. Values represent the mean±S.D. (n=5).
Killing assays in saliva. Unclarified saliva (unstimulated whole saliva) was collected from five healthy individuals during the fasting. Clarified saliva was obtained by passing the unclarified saliva through the 0.2 μm pore size sterile syringe filter (VWR scientific products, West Chester, Pa.). Candidacidal activity assays were performed as described previously (4), except the phosphate buffer was substituted with saliva. […] Saliva without peptides was a blank control. After incubation at 37° C. for 1.5 h, the reactions were diluted 20-fold in PB and aliquots (50 μl, ˜120 cells) of each sample were plated on SDA. The plates were incubated at 37° C. for 1 day aerobically and the number of colony-forming units (CFUs) was counted. Percentage of killing was calculated as (1−amount of viable cells in the test group)/(amount of viable cells in the control group)×100%.

[H]/N=C(\N/C(=N/[H])NCCCCCCNC(=N)NC(=N)Nc1ccc(Cl)cc1)Nc1ccc(Cl)cc1 [Chlorhexidine, Chlorhexidine digluconate]
reduction of the viable counts of S. mutans (S. mutans GS-5): 1 log10

CC(C)C[C@@H](NC(=O)[C@@H](CS)NC(=O)[C@@H](CCCCN)NC(=O)[C@@H](Cc1ccc(O)cc1)NC(=O)[C@@H](CO)NC(=O)[C@@H](CCCCN)NC(=O)[C@H](N)CCCNC(=N)N)C(=O)N[C@H](Cc1c[nH]cn1)C(=O)N[C@H](CCCCN)C(=O)N[C@H](CCCNC(=N)N)C(=O)N[C@H](CS)C(=O)N[C@H](CCCNC(=N)N)C(=O)O [MUC7 12-mer-D] (H-[dR][dK][dS][dY][dK][dC][dL][dH][dK][dR][dC][dR]-OH; N-terminus and C-terminus assumed)
activity (killing) (Candida strains): 47-100% | killing (Candida strains): ~100% | degradation by trypsin (trypsin): resistant to the degradation

CC(C)C[C@H](NC(=O)[C@H](CS)NC(=O)[C@H](CCCCN)NC(=O)[C@H](Cc1ccc(O)cc1)NC(=O)[C@H](CO)NC(=O)[C@H](CCCCN)NC(=O)[C@@H](N)CCCNC(=N)N)C(=O)N[C@@H](Cc1c[nH]cn1)C(=O)N[C@@H](CCCCN)C(=O)N[C@@H](CCCNC(=N)N)C(=O)N[C@@H](CS)C(=O)N[C@@H](CCCNC(=N)N)C(=O)O [MUC7 12-mer-L] (H-RKSYKCLHKRCR-OH; N-terminus and C-terminus assumed)
killing (Candida strains): 44-80% | degradation by trypsin (trypsin): degraded

AKRHHGYKRKFH [Hsn5 12-mer]
degradation by trypsin (trypsin): degraded

GIGKFLHSAKKFGKAFVGEIMNS [Magainin-II]
hemolysis (Erythrocytes; IGP buffer): 92% | hemolysis (Erythrocytes; PBS): 0% | percent loss of cell viability ([1]; PIC+): 99.80^± % | percent loss of cell viability ([1]; PIC−): 0.00% | reduction of the viable counts of S. mutans (S. mutans GS-5): 3 log10 | degradation by trypsin (trypsin; 0.5 h, 37° C., SDS-PAGE): degraded | candidacidal activity (killing) (C. albicans DIS; 100 μM, clarified saliva, no PIC/EDTA): 0% | killing (C. albicans DIS; 100 μM, unclarified saliva, no PIC/EDTA): 0% | percent loss of cell viability (C. albicans DIS; clarified saliva, PIC+ (Table 1)): 94.42^± % | percent loss of cell viability (C. albicans DIS; clarified saliva, PIC− (Table 1)): 0.00%
